In patent publication US20230278984A1 (Global Blood Therapeutics, Inc., priority 2020, published 2023):

Molecular target: T1, Human pyruvate kinase R (PKR) (Homo sapiens, UniProt P30613)
T1 construct: Human pyruvate kinase R (PKR), residues 14-574; 6x-His (N, cleaved yes); 8x-Arg (N, cleaved yes); SUMO (N, cleaved yes); host or cells: E. coli
Assay: Biochemical assay for activation of pyruvate kinase R (Kinase-Glo luminescence measurement of ATP generation)
Conditions: for AC50: PKR biochemical assay, 0.1 nM PKR, 0.3 mM ADP, 2 mM FBP, 0.1 mM PEP; for Emax: maximal activation level relative to the activation level achieved by the literature compound AG-348 @ 10 μM
Procedure: Human pyruvate kinase R (PKR), residues 14-574, and human pyruvate kinase M2, residues 1-531, were cloned into expression plasmids and obtained from ATUM Bio (Newark, Calif.). Proteins were translated as fusions with 6×-His, 8×-Arg, and SUMO at the N-terminus. A third construct of human PKR was truncated, residues 50-574, and similarly cloned for use in crystallography experiments. All proteins were cloned, expressed in E. coli, and purified using similar protocols. Cells were grown at 30° C. in Luria-Bertani broth supplemented with 0.4% glucose to OD600=0.8 and induced with 0.4 mM IPTG at 16° C. for 18 hours. Cells were harvested by centrifugation, resuspended in 50 mM potassium phosphate pH 8.0, 500 mM NaCl, 25 mM imidazole pH 8.0, and 3 mM (3-mercaptoethanol. Cells were lysed using a LM20 microfluidizer from Microfluidics (Westwood, Mass.). The crude lysate was immediately supplemented with 0.2 mM phenylmethylsulfonyl fluoride (PMSF) and centrifuged at 20,000 g for 20 minutes. The soluble fraction was subsequently incubated with 2 mL Ni-NTA (GE Healthcare) per 1,000 ODs for 1 hour at 4° C. Following incubation with the Ni-NTA resin, lysate was removed by pelleting resin at 2,500 g for 3 minutes and washed 3 times with 9 bed volumes of 50 mM potassium phosphate pH 8.0, 500 mM NaCl, 25 mM imidazole, and 3 mM 3-mercaptoethanol. Following the batch wash Ni-NTA resin was loaded onto a gravity column and His-tagged protein was eluted with 6 bed volumes of 10 mM Tris/HCl pH 8.0, 200 mM NaCl, 500 mM imidazole, and 3 mM (3-mercaptoethanol. Eluted protein was dialyzed overnight against 10 mM Tris/HCl pH 8.0, 200 mM NaCl, and 1 mM DTT and the 6×-His-8×-Arg-SUMO-tag was cleaved using a 20:1 molar ratio of protein:3C protease. The protein was purified by anion exchange chromatography on a HiTrapQ or MonoQ 10/100 GL column (GE Healthcare) via a linear NaCl gradient and twice by size exclusion chromatography using a Superdex S200 26/60 column (GE Healthcare) run in 10 mM Tris/HCl pH 8.0, 200 mM NaCl, 10 mM MgCl2, 1 mM DTT. Proteins were concentrated to −12 mg/mL for crystallization and flash frozen for storage.
Biochemical Assay for Activation of Pyruvate Kinase R
Activation of pyruvate kinase R (PKR) and pyruvate kinase M2 (PKM2) were measured using a luminescence based measurement of ATP generation and the Kinase-Glo luminescent kinase reagent kit.

T1 sequence (P30613 14-574): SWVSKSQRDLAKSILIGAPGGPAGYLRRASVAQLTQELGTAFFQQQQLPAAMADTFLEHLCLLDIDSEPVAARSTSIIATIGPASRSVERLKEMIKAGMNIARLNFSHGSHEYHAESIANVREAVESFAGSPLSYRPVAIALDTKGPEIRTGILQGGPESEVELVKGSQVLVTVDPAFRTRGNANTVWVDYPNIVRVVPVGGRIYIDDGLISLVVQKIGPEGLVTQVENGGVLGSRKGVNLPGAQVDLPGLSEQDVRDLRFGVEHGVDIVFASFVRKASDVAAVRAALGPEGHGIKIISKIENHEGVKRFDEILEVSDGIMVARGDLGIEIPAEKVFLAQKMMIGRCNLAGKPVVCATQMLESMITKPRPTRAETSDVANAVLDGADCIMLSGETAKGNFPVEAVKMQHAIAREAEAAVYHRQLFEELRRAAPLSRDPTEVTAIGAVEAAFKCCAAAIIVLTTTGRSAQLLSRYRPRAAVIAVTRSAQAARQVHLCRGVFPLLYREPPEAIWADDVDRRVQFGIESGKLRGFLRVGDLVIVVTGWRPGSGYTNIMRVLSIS

| SMILES | AC50 [nM] | Emax [%] |
| --- | --- | --- |
| Cc1nc(CNC(=O)NCc2ncnn2-c2ccc3scnc3c2)n(-c2ccc(Cl)c(F)c2)n1 [Compound 17, 1-{[1-(1,3-benzothiazol-5-yl)-1H-1,2,4-triazol-5-yl]methyl}-3-{[1-(4-chloro-3-fluorophenyl)-3-methyl-1H-1,2,4-triazol-5-yl]methyl}urea] | 13 | 82 |
| Cc1nc(CNC(=O)NCc2n[nH]c(=O)n2-c2ccc(Cl)c(F)c2)n(-c2ccc(Cl)c(F)c2)n1 [Compound 89, 1-{[1-(4-chloro-3-fluorophenyl)-3-methyl-1H-1,2,4-triazol-5-yl]methyl}-3-{[4-(4-chloro-3-fluorophenyl)-5-oxo-4,5-dihydro-1H-1,2,4-triazol-3-yl]methyl}urea] | 31 | 91 |
| O=C(NCc1ncnn1-c1ccc(Cl)c(F)c1)NCc1ncnn1-c1nc2cc(Cl)ccc2s1 [Compound 35, 1-{[1-(5-chloro-1,3-benzothiazol-2-yl)-1H-1,2,4-triazol-5-yl]methyl}-3-{[1-(4-chloro-3-fluorophenyl)-1H-1,2,4-triazol-5-yl]methyl}urea] | 3200 | 28 |
| Cc1nc(CNC(=O)NCc2ncnn2-c2ccc3c(c2)OCC3)n(-c2ccc(Cl)c(F)c2)n1 [Compound 24, 3-{[1-(4-chloro-3-fluorophenyl)-3-methyl-1H-1,2,4-triazol-5-yl]methyl}-1-{[1-(2,3-dihydro-1-benzofuran-6-yl)-1H-1,2,4-triazol-5-yl]methyl}urea] | 24 | 75 |
| O=C(NCc1ncnn1-c1ccc(Cl)cc1)NCc1ncnn1-c1ccc(Cl)cc1 [Compound 61, 1,3-bis({[1-(4-chlorophenyl)-1H-1,2,4-triazol-5-yl]methyl})urea] | 11 | 36 |
| Cc1nc(CNC(=O)NCC2=NC3(CCC3)C(=O)N2c2ccc3cccnc3c2)n(-c2ccc(Cl)c(F)c2)n1 [Compound 112, 1-{[1-(4-chloro-3-fluorophenyl)-3-methyl-1H-1,2,4-triazol-5-yl]methyl}-3-{[8-oxo-7-(quinolin-7-yl)-5,7-diazaspiro[3.4]oct-5-en-6-yl]methyl}urea] | 802 | 126 |
| O=C(NCc1nnnn1-c1ccc(C(F)(F)F)cc1)NCc1nnnn1-c1ccc(C(F)(F)F)cc1 [Compound 115, 1,3-bis({1-[4-(trifluoromethyl)phenyl]-1H-1,2,3,4-tetrazol-5-yl}methyl)urea] | 1700 | 148 |
| COCCc1nc(CNC(=O)NCc2nc(C)nn2-c2ccc3cccnc3c2)n(-c2ccc(Cl)c(F)c2)n1 [Compound 100] | 510 | 106 |
| O=C(NCc1ncnn1-c1ccc(Cl)c(F)c1)NCc1ncnn1C1CCOCC1 [Compound 5, 3-{[1-(4-chloro-3-fluorophenyl)-1H-1,2,4-triazol-5-yl]methyl}-1-{[1-(oxan-4-yl)-1H-1,2,4-triazol-5-yl]methyl}urea] | 420 | 47 |
| COc1ccc(-n2ncnc2CNC(=O)NCc2ncnn2-c2ccc(OC)cc2)cc1 [Compound 65, 1,3-bis({[1-(4-methoxyphenyl)-1H-1,2,4-triazol-5-yl]methyl})urea] | 1800 | 62 |
| Cc1nc(CNC(=O)NCc2ncnn2-c2cc(C)c3cncnc3c2)n(-c2ccc(Cl)c(F)c2)n1 [Compound 105, 1-{[1-(4-chloro-3-fluorophenyl)-3-methyl-1H-1,2,4-triazol-5-yl]methyl}-3-{[1-(5-methylquinazolin-7-yl)-1H-1,2,4-triazol-5-yl]methyl}urea] | 880 | 59 |
| Cc1nc(CNC(=O)NCc2nc(CO)nn2-c2ccc(Cl)c(F)c2)n(-c2ccc3cccnc3c2)n1 [Compound 93, 1-{[1-(4-chloro-3-fluorophenyl)-3-(hydroxymethyl)-1H-1,2,4-triazol-5-yl]methyl}-3-{[3-methyl-1-(quinolin-7-yl)-1H-1,2,4-triazol-5-yl]methyl}urea] | 150 | 100 |
| Cc1nc(CNC(=O)NCc2ncnn2-c2ccc3ncncc3c2)n(-c2ccc(Cl)c(F)c2)n1 [Compound 127, 1-{[1-(4-chloro-3-fluorophenyl)-3-methyl-1H-1,2,4-triazol-5-yl]methyl}-3-{[1-(quinazolin-6-yl)-1H-1,2,4-triazol-5-yl]methyl}urea] | 47 | 45 |
| Cc1nc(CNC(=O)NCc2ncnn2-c2cccnc2)n(-c2ccc(Cl)c(F)c2)n1 [Compound 129, 1-{[1-(4-chloro-3-fluorophenyl)-3-methyl-1H-1,2,4-triazol-5-yl]methyl}-3-{[1-(pyridin-3-yl)-1H-1,2,4-triazol-5-yl]methyl}urea] | 430 | 72 |
| Cc1nc(CNC(=O)NCc2nc(C3CC3)nn2-c2ccc3cccnc3c2)n(-c2ccc(Cl)c(F)c2)n1 [Compound 55, 3-{[1-(4-chloro-3-fluorophenyl)-3-methyl-1H-1,2,4-triazol-5-yl]methyl}-1-{[3-cyclopropyl-1-(quinolin-7-yl)-1H-1,2,4-triazol-5-yl]methyl}urea] | 79 | 90 |
| Cc1nc(CNC(=O)NCc2nc(C)nn2-c2ccc(Cl)c(CO)c2)n(-c2ccc(Cl)c(F)c2)n1 [Compound 96, 1-({1-[4-chloro-3-(hydroxymethyl)phenyl]-3-methyl-1H-1,2,4-triazol-5-yl}methyl)-3-{[1-(4-chloro-3-fluorophenyl)-3-methyl-1H-1,2,4-triazol-5-yl]methyl}urea] | 34 | 100 |
| Cc1nc(CNC(=O)NCC2=NC3(CC3)C(=O)N2Cc2ccc(F)cc2)n(-c2ccc(Cl)c(F)c2)n1 [Compound 106, 1-{[1-(4-chloro-3-fluorophenyl)-3-methyl-1H-1,2,4-triazol-5-yl]methyl}-3-({6-[(4-fluorophenyl)methyl]-7-oxo-4,6-diazaspiro[2.4]hept-4-en-5-yl}methyl)urea] | 71 | 125 |
| Cc1cncc(-n2ncnc2CNC(=O)NCc2nc(C)nn2-c2ccc(Cl)c(F)c2)c1 [Compound 137, 1-{[1-(4-chloro-3-fluorophenyl)-3-methyl-1H-1,2,4-triazol-5-yl]methyl}-3-{[1-(5-methylpyridin-3-yl)-1H-1,2,4-triazol-5-yl]methyl}urea] | 180 | 99 |
| Cc1nc(CNC(=O)NCc2ncnn2-c2cc(F)c3cncnc3c2)n(-c2ccc(Cl)c(F)c2)n1 [Compound 108, 1-{[1-(4-chloro-3-fluorophenyl)-3-methyl-1H-1,2,4-triazol-5-yl]methyl}-3-{[1-(5-fluoroquinazolin-7-yl)-1H-1,2,4-triazol-5-yl]methyl}urea] | 900 | 74 |
| Cc1nc(CNC(=O)NCc2ncnn2-c2cnc3c(F)cccc3c2)n(-c2ccc(Cl)c(F)c2)n1 [Compound 136, 3-{[1-(4-chloro-3-fluorophenyl)-3-methyl-1H-1,2,4-triazol-5-yl]methyl}-1-{[1-(8-fluoroquinolin-3-yl)-1H-1,2,4-triazol-5-yl]methyl}urea] | 47 | 94 |
| CN(Cc1nnnn1-c1ccc(Cl)c(F)c1)C(=O)NCc1ncnn1-c1ccc(Cl)c(F)c1 [Compound 32, 1-{[1-(4-chloro-3-fluorophenyl)-1H-1,2,3,4-tetrazol-5-yl]methyl}-3-{[1-(4-chloro-3-fluorophenyl)-1H-1,2,4-triazol-5-yl]methyl}-1-methylurea] | 210 | 74 |
